Laboratory results: US9618502B2, “Muscle stem cell or myoblast, method for screening substances that participate in metabolic conversion using same, and pharmaceutical composition comprising substance obtained from said screening method” (TOKYO METROPOLITAN GERIATRIC HOSPITAL AND INSTITUTE OF …, priority 2013, dated 2017)

B1: mouse fibroblast growth factor 21: protein consisting of the amino acid sequence of SEQ ID NO: 1, mouse fibroblast growth factor 21 (protein, listed as Mus musculus)
chain: MEWMRSRVGTLGLWVRLLLAVFLLGVYQAYPIPDSSPLLQFGGQVRQRYLYTDDDQDTEAHLEIREDGTVVGAAHRSPESLLELKALKPGVIQILGVKASRFLCQQPDGALYGSPHFDPEACSFRELLLEDGYNVYQSEAHGLPLRLPQKDSPNQDATSWGPVRFLPMPGLLHEPQDQAGFLPPEPPDVGSSDPLSMVEPLQGRSPSYAS

Assays:
Format in all cases: cell-based, mouse
[1] = tested on: cells expressing the myosin-heavy chain IIb protein; assay: Screening method of substances involved in a metabolic shift: myotube cells from immortalized muscle stem cells, mCherry fluorescence; conditions: for number of myotube cells that generate fluorescence of mCherry (cells expressing myosin-heavy chain IIb): compared to the negative control; for area of cells expressing the myosin-heavy chain IIb protein: two days treatment
Experimental: (§1) In this Example, 27 test compounds were tested by the screening method of substances involved in a metabolic shift using the immortalized muscle stem cells (satellite cells) prepared in Example 2.
(§2) The immortalized muscle stem cells (1×10^5) were seeded on a 60 mm dish or the immortalized muscle stem cells (2×10^3) were seeded on a 96 well plate. The cells were cultured in a DMEM containing 20% FBS, bFGF (10 ng/mL), and IFNy (10 ng/mL) at 33° C. for 1 day, and then, cultured in a DMEM containing 5% HS at 37° C. for 3 days. Subsequently, test substances were serially diluted by a DMEM containing 5% horse serum at an appropriate dilution rate, and the diluted substances were added to the dishes respectively. After two days treatment, fluorescences of YFP, Sirius, mCherry, and mCerulean in the living cells were observed using a fluorescence microscope, and the number of cells, which generate the respective fluorescence, was measured.
(§3) In this example, additional test compounds were tested using the immortalized muscle stem cells (satellite cells) prepared in Example 2. The screening method of substances involved in a metabolic shift was performed by repeating a procedure of Example 3.

[2] = tested on: cells expressing the myosin-heavy chain I protein; assay: Screening method of substances involved in a metabolic shift: myotube cells from immortalized muscle stem cells, YFP fluorescence; conditions: for area of cells expressing the myosin-heavy chain I protein: two days treatment; for number of myotube cells that generate fluorescence of YFP (myosin-heavy chain I): compared to the negative control
Experimental: as §1, §2, §3

[3] = tested on: immortalized muscle stem cells (satellite cells); assay: Proliferation inhibition screening method using satellite cells; conditions: 5 nM, five days of culturing, versus control without rapamycin
Experimental: The rapamycin was obtained by the metabolic shift screening method in Example 3. In this Example, whether or not the rapamycin can be screened by the proliferation inhibition screening method using satellite cells was examined.
The immortalized muscle stem cells (1×10^4) were seeded on a 35 mm dish. The cells were cultured in a DMEM containing 20% FBS, bFGF (lOng/mL), and IFNγ (10 ng/mL) at 33° C. for 1 day, and then the rapamycin was diluted to a concentration of 5 nM by a DMEM containing 5% FBS, and the diluted rapamycin was added to the dish. The number of cells was counted after five days of culturing. […] The term “Control” means negative control in which the rapamycin was not added. The proliferation of satellite cells was inhibited by adding rapamycin.

Molecule	number of myotube cells that generate fluorescence of mCherry (cells expressing myosin-heavy chain IIb) [1]	area of cells expressing the myosin-heavy chain I protein ([2]; 1 nM, negative control 28.4%)	area of cells expressing the myosin-heavy chain I protein ([2]; 10 nM, negative control 28.4%)	area of cells expressing the myosin-heavy chain I protein ([2]; 100 nM, negative control 28.4%)	number of myotube cells that generate fluorescence of YFP (myosin-heavy chain I) [2]	area of cells expressing the myosin-heavy chain IIb protein ([1]; 100 nM, negative control 44.5%)	area of cells expressing the myosin-heavy chain IIb protein ([1]; 500 nM, negative control 44.5%)	area of cells expressing the myosin-heavy chain IIb protein ([1]; 4 nM, negative control 41.8%)	proliferation of satellite cells (number of cells) [3]	area of cells expressing the myosin-heavy chain I protein ([2]; 4 nM, negative control 25.3%)	area of cells expressing the myosin-heavy chain IIb protein ([1]; 500 ng/mL, negative control 36.2%)	area of cells expressing the myosin-heavy chain I protein ([2]; 100 ng/mL, negative control 19.5%)	area of cells expressing the myosin-heavy chain I protein ([2]; 500 ng/mL, negative control 19.5%)
C[C@H](Cc1ccc2c(c1)OC(C(=O)[O-])(C(=O)[O-])O2)NC[C@H](O)c1cccc(Cl)c1.[Na+].[Na+] [CL316243]	remains static	49.3%	53.8%	57.8%	increased	–	–	–	–	–	–	–	–
N[C@@H](Cc1cc(I)c(Oc2ccc(O)c(I)c2)c(I)c1)C(=O)O [T3, triiodothyronine]	increased	–	–	–	–	71.3%	70.0%	–	–	–	–	–	–
CO[C@H]1C[C@@H]2CC[C@@H](C)[C@@](O)(O2)C(=O)C(=O)N2CCCC[C@H]2C(=O)O[C@H]([C@H](C)C[C@@H]2CC[C@@H](O)[C@H](OC)C2)CC(=O)[C@H](C)/C=C(\C)[C@@H](O)[C@@H](OC)C(=O)[C@H](C)C[C@H](C)/C=C/C=C/C=C/1C [rapamycin]	decreased	–	–	–	increased	–	–	8.4%	inhibited	60.9%	–	–	–
IL-15: IL-15, one of the test substances	increased	–	–	–	increased	–	–	–	–	–	53.0%	35.0%	36.1%
B1	remains static	40.6%	48.0%	54.9%	increased	–	–	–	–	–	–	–	–
